Paper PMC4569258

What was measured:
[1] = MTT cytotoxicity test in AZ-AHR cells; assay type: cell-based; details: human
Method: (§1) Prior to gene reporter assays, we examined the cytotoxicity of tested compounds in AZ-AHR, AZ-GR and LS180 cell lines. For this purpose, the cells were incubated for 24 h with individual enantiomers of atorvastatin, fluvastatin and rosuvastatin at concentrations ranging from 100 pM to 100 μM. The vehicle was DMSO (0.1% v/v). After the treatment, a conventional MTT test was performed and the values of IC50 were calculated.
(§2) Fig 2 Cytotoxicity of statin enantiomers in human cancer cell lines. […] After the treatment, a conventional MTT test was performed and absorbance was measured at 540 nm. Treatments were performed in triplicates.

[2] = MTT cytotoxicity test in AZ-GR cells; assay type: cell-based; details: human, AZ-GR cells (HeLa-derived GR luciferase reporter cell line)
Method: as §1, §2

[3] = MTT cytotoxicity test in LS180 cells; assay type: cell-based; details: human, LS180 colon adenocarcinoma cells
Method: as §1, §2

[4] = biological target: T1, pregnane X receptor (PXR) (Homo sapiens, UniProt O75469); details: 100 μM concentration, agonist mode
T1 sequence (O75469 1-434): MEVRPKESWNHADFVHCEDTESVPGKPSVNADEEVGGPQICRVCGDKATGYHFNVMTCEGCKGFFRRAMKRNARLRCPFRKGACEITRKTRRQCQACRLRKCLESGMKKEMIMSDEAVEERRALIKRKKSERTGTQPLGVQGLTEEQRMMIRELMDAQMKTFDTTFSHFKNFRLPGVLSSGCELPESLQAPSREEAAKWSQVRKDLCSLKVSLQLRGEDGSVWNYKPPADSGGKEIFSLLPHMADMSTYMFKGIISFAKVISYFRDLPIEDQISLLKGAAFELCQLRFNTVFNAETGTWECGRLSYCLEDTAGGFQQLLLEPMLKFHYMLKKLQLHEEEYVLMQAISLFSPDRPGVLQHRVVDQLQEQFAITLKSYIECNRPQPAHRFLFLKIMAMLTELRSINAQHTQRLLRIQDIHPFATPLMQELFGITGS

CYP2C9 = system: CYP2C9; design: method as in PMID 8737761; details: ratio to (+)3R,5S-fluvastatin; cited from earlier work
[5] = design: method as in PMID 19033449, PMID 16480934; details: humans, ratio to (+)3R,5S-fluvastatin; cited from earlier work
[6] = biological target: T2, aryl hydrocarbon receptor (AhR) (Homo sapiens, UniProt P35869); test: cell-based
T2 sequence (P35869 11-848): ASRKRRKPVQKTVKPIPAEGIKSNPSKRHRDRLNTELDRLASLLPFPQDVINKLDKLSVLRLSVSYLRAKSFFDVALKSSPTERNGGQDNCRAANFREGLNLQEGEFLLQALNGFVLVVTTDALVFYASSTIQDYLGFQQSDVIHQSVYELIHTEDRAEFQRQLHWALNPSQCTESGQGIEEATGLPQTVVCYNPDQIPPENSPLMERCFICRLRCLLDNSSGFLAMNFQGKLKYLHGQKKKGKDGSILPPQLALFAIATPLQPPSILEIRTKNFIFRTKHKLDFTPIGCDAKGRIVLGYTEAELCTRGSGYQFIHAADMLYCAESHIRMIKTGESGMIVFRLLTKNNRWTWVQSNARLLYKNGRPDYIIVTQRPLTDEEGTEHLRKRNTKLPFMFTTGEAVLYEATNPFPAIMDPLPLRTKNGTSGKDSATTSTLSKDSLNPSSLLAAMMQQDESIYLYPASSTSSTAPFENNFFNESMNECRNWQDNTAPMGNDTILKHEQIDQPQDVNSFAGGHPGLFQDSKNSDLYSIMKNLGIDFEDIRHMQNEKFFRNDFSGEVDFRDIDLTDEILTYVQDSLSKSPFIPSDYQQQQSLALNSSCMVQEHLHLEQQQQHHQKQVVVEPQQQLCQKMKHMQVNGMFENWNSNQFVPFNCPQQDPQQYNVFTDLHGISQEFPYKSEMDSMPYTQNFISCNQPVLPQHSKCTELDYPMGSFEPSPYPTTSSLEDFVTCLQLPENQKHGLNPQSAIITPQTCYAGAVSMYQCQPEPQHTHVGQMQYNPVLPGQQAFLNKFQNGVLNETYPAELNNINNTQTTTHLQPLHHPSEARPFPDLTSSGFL
Method: (§3) A stably transfected gene reporter cell line AZ-AHR, derived from human hepatoma HepG2 cells transfected with a construct containing several AhR binding sites upstream of a luciferase reporter gene, was used for assessment of AhR transcriptional activity [20].
(§4) Transcriptional activity of AhR was assessed in human gene reporter cell line AZ-AHR incubated for 24 h with tested compounds.
(§5) AZ-AHR cells were seeded in 96-well plates and stabilized for 16 h and then incubated for 24 h with enantiopure forms of atorvastatin, rosuvastatin and fluvastatin in concentration ranging from 10^−10 M to 10^−4 M in the absence (agonist mode–upper panels) or presence (antagonist mode–lower panels) of dioxin (TCDD; 5 nM). The vehicle was DMSO (0.1% v/v). After the treatments, cells were lysed and luciferase activity was measured. Treatments were performed in triplicates. Data are expressed as a fold induction of luciferase activity over control cells (agonist mode) or as a percentage of maximal activation attained by TCDD (antagonist mode). The values of EC50 and IC50 from n independent cell passages were calculated where appropriate and the average values are indicated in plots. Representative gene reporter assays are shown.

[7] = biological target: T2, aryl hydrocarbon receptor (AhR); test: AhR gene reporter assay in AZ-AHR cells; details: 24 h
Method: as §3, §4, §5

SMILES: CC(C)n1c(C=CC(O)CC(O)CC(=O)O)c(-c2ccc(F)cc2)c2ccccc21 (stereo not drawn) [3S5R-fluvastatin, 3S5R- fluvastatin]
- IC50 at 24 h [1]: > 100 µM
- IC50 at 24 h [2]: > 100 µM
- IC50 at 24 h [3]: > 100 µM
- efficacy: average induction of PXR luciferase activity [4]: approx. 5 fold
- Ki values of CYP2C9 inhibition compared to (+)3R,5S-fluvastatin (CYP2C9): four to five times higher
- AUC value compared to (+)3R,5S-fluvastatin [5]: 1.8 times
- EC50 [6]: 14.4 ± 4.2 µM
- IC50 ([7]; AhR antagonist IC50, antagonist mode, in presence of TCDD 5 nM): > 100 µM
- effect on AhR-dependent luciferase activity (agonist mode), in words ([7]; agonist mode): slightly increased luciferase activity
